Source: patent US9258998B2, “Methods for controlling flower development in plants” (Yale University, priority 2009, dated 2016)

Legend:
Format in all cases: in vivo
[1] = tested on: mutant ts2-ref/ts2-ref and ts2-ref/+ plants; assay: Jasmonic acid treatment of ts2 maize plants; conditions: JA applied as for ts1 plants
Method: (§1) Maize plants were grown under greenhouse conditions. Two seeds were planted in 2-gallon reusable pots containing Super-Fine Germinating Mix (Fafard, Agawam, Mass., USA) or Redi-earth Professional Growing Mix (Sun Gro, Bellevue, Wash., USA). Fertilization was performed with controlled release Osmocote Plus 15-9-12 (Scotts, Marysville, Ohio, USA) following the manufacturer recommendations. Additional watering was performed with 4% ammonium iron citrate (Sigma-Aldrich) every 2 weeks to prevent chlorosis. Greenhouse average temperatures were 28° C. (day) and 21° C. (night). Supplemental lightning was provided to achieve a 16:8 hour photoperiod yearlong.
(§2) Tassels of about 1 cm were considered to be at an ideal stage to initiate chemical treatments. Since a thick leaf whorl covers the maize tassel at this time of development, only a destructive dissection of the plant permits to assess with certainty the stage of tassel development (Bonnet, 1940, J. Agricult. Res. 60:25; Bonnet, 1948, Ann. Mo. Bot. Gard. 35:269). Additionally, the sex determination phase was reached within a wide time window, between 28 and 46 days post-planting, depending on the growing conditions. Leaf number, node number or internode distance were not always reliable criteria to predict the tassel developmental stage. […]

[2] = tested on: ts1 mutant (ts1-ref/ts1-ref) plants; assay: Jasmonic acid treatment of ts1 mutant maize tassels
Method: as §1
Tassels of about 1 cm were considered to be at an ideal stage to initiate chemical treatments. Since a thick leaf whorl covers the maize tassel at this time of development, only a destructive dissection of the plant permits to assess with certainty the stage of tassel development (Bonnet, 1940, J. Agricult. Res. 60:25; Bonnet, 1948, Ann. Mo. Bot. Gard. 35:269). Additionally, the sex determination phase was reached within a wide time window, between 28 and 46 days post-planting, depending on the growing conditions. Leaf number, node number or internode distance were not always reliable criteria to predict the tassel developmental stage.
Seedlings from a family segregating 1:1 for wild-type (ts1-ref/Ts1) and ts1 mutant (ts1-ref/ts1-ref) plants were genotyped for the Ts1 and ts1-ref alleles with a PCR-based assay. […] Jasmonic acid (JA, Sigma-Aldrich) was dissolved at a concentration of 200 mM in absolute ethanol and stored at −20° C. Prior to plant treatment, the JA stock solution was diluted to a concentration of 1 mM in deionized water. Control plants were treated with a 0.005% ethanol solution (“blank” treatment or negative control). One ml of the corresponding solution was applied into the apical leaf cavity of each plant. Treatments were performed three times at 48-hour intervals.
The developmental timing of the pistil abortion process occurs in tassel inflorescences when they are 1.0 to 3.0 cm in length (Irish & Nelson, 1993, Am. J. Bot. 80:292), which was also the stage at which ts1 expression occurred in the subtending glumes (FIGS. 6B to 6D). A 0.005% ethanol solution, with or without 1 mM JA, was applied to tassels of ˜1 cm in wildtype (ts1-ref/+) or ts1 mutant (ts1-ref/ts1-ref) sibling plants.

[3] = tested on: wildtype (ts1-ref/+) sibling plants; assay: Jasmonic acid treatment of heterozygous wild-type sibling maize plants; conditions: 1 mM JA, three times at 48-hour intervals
Method: as §1, §2

[4] = 1 mM JA, three times at 48-hour intervals

Question: `CC/C=C\C[C@H]1C(=O)CC[C@@H]1CC(=O)O` [JA, (1R,2R)-3-oxo-2-(2Z)-2-pentenylcyclopentaneacetic acid] was tested. Which “response of ts2 plants to treatment” value [1] did it give?
Answer: responded in the same manner as the JA-treated ts1 mutants

Question: What about the “sexual phenotype of tassel (feminization; staminate spikelets)” value ([2]; 1 mM JA in 0.005% ethanol, 1 ml into apical leaf cavity, three times at 48-hour intervals, tassels of ~1 cm) of the same compound?
Answer: reversed feminization

Question: And the “glume morphology of treated ts1 mutants” value [2, 4]?
Answer: elongated, were covered with numerous trichomes, and had a ring of anthocyanin deposited at the base

Question: What about the “time to appearance of wildtype rescue in glumes after treatment” value [2, 4] of the same compound?
Answer: 3 to 4 weeks

Question: And the “stamen emergence from treated ts1 mutant spikelets” value ([2]; later in floral development)?
Answer: stamens emerged

Question: What about the “pollen viability of staminate florets from rescued ts1/ts1 plants” value ([2]; pollen used for self-pollination and test crosses) of the same compound?
Answer: produced viable pollen

Question: What about the “completeness of rescued tassel inflorescence phenotype” value ([2]; some spikelets bisexual, others at base pistillate) of the same compound?
Answer: incomplete

Question: And the “effect of treatment on heterozygous ts1-ref/+ sibs” value [3]?
Answer: nor did JA treatment affect heterozygous ts1-ref/+ sibs
